Results published in ChEMBL document CHEMBL5291721, “A preclinical secondary pharmacology resource illuminates target-adverse drug reaction associations of marketed drugs” (Nat Commun, 2023).

Columns and labels:
[1] = biological target: T1, Retinoic acid receptor gamma (Homo sapiens, UniProt P13631); format: functional, cell-based
T1 sequence (P13631 whole entry): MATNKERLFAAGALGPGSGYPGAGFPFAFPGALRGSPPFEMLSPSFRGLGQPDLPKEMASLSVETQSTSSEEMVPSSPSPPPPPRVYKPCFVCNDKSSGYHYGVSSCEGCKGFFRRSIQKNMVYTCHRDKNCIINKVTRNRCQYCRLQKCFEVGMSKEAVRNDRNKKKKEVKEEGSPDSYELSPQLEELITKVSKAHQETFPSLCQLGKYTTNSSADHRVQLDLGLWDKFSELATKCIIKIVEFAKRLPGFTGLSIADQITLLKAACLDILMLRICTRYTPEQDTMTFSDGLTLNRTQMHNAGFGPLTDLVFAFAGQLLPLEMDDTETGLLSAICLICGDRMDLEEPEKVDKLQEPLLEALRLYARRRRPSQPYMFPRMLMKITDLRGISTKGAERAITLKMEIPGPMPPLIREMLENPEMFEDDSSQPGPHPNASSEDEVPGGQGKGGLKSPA

Glucocorticoid receptor = biological target: T2, Glucocorticoid receptor (Homo sapiens, UniProt P04150); format: functional
T2 sequence (P04150 whole entry): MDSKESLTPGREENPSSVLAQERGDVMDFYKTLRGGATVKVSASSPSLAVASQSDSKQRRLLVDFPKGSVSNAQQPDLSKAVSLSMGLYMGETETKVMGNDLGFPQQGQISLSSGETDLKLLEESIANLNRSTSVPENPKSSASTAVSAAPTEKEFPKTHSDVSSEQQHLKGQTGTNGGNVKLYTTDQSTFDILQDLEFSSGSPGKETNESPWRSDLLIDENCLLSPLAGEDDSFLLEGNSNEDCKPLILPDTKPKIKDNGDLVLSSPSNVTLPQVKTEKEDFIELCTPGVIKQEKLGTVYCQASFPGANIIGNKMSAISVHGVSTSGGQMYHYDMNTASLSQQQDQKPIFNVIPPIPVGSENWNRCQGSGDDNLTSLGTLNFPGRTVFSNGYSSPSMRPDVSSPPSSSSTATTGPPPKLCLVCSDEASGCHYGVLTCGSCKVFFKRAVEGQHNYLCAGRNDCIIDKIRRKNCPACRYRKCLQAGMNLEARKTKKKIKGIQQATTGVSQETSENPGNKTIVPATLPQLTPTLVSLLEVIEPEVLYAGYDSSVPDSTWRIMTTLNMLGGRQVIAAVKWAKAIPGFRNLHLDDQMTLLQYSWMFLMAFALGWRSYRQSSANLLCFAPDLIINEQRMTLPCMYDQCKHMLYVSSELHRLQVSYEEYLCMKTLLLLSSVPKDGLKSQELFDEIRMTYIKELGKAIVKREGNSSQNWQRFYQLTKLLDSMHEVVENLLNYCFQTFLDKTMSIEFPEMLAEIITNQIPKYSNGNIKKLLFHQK

Estrogen receptor = biological target: T3, Estrogen receptor (Homo sapiens, UniProt P03372); format: functional
T3 sequence (P03372 whole entry): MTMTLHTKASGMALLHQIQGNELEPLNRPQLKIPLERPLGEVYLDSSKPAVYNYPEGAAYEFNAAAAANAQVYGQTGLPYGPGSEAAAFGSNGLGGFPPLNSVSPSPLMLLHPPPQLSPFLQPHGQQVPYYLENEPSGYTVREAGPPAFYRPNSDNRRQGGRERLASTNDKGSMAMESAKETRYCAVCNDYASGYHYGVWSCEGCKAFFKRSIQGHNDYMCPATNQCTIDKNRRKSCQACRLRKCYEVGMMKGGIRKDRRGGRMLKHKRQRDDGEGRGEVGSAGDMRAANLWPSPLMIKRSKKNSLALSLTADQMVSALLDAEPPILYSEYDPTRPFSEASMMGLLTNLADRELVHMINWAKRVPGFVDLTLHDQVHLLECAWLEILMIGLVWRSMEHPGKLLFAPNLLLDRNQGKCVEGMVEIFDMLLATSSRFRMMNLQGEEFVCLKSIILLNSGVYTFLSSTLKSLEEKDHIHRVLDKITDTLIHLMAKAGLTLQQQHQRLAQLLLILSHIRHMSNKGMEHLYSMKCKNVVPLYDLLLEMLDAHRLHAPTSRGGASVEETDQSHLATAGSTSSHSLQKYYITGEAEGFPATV

[2] = biological target: T4, Type-1 angiotensin II receptor (Homo sapiens, UniProt P30556)
T4 sequence (P30556 whole entry): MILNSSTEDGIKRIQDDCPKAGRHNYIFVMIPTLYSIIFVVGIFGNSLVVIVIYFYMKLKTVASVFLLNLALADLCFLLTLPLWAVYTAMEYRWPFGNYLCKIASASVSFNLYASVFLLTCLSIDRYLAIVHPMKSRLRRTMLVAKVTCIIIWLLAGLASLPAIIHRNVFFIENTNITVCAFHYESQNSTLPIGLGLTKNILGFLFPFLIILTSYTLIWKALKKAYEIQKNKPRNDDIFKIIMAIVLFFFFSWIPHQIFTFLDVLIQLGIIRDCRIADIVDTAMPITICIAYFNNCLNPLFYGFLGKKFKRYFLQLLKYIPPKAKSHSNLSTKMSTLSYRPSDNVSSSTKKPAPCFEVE

[3] = biological target: Synaptic vesicular amine transporter (Rattus norvegicus, UniProt Q01827); format: functional
[4] = biological target: T5, Alpha-1A adrenergic receptor (Homo sapiens, UniProt P35348); format: functional, cell-based
T5 sequence (P35348 whole entry): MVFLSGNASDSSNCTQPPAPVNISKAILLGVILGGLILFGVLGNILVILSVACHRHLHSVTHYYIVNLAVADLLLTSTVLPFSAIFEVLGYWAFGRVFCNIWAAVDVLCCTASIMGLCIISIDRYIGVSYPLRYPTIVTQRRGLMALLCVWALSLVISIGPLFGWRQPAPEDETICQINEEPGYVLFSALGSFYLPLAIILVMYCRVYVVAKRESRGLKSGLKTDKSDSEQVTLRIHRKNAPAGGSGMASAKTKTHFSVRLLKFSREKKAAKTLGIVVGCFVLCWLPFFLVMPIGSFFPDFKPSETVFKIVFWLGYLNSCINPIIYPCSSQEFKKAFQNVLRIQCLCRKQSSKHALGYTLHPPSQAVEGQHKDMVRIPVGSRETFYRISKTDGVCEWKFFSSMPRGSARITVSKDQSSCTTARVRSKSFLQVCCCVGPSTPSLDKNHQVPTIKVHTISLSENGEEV

[5] = biological target: Sodium-dependent serotonin transporter (Homo sapiens, UniProt P31645)
Also: assay procedure not described here.

Chain of Synaptic vesicular amine transporter (Q01827 whole entry): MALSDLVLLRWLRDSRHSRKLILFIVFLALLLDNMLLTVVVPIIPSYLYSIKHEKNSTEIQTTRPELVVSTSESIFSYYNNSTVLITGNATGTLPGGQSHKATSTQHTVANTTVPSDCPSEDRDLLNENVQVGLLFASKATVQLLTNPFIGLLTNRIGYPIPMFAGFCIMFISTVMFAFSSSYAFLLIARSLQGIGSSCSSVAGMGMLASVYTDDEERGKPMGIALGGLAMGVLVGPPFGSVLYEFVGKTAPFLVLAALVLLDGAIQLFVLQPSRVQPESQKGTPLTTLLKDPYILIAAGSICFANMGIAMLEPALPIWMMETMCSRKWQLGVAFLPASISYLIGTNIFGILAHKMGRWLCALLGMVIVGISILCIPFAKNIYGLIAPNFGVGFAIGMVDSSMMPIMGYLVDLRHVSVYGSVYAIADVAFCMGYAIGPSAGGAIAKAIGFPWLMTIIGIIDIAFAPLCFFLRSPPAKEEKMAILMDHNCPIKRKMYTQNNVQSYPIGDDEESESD
Chain of Sodium-dependent serotonin transporter (P31645 whole entry): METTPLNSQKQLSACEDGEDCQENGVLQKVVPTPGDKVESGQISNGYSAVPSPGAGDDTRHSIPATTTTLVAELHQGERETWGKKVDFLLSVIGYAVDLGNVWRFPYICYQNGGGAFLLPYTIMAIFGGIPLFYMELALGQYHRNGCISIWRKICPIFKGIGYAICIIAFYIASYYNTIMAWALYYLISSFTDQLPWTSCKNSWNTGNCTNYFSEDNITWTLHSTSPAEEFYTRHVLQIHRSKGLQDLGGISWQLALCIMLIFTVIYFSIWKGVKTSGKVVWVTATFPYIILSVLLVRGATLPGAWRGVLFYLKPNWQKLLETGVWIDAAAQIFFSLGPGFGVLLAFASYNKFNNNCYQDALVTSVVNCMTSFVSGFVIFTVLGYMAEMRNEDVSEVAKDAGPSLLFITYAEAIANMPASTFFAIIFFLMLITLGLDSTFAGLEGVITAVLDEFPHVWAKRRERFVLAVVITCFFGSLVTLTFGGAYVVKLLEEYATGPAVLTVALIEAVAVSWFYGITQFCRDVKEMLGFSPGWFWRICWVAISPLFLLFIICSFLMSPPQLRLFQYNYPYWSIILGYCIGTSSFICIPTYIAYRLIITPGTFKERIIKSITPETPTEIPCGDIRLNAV

CC(C)c1c(C(=O)Nc2ccccc2)c(-c2ccccc2)c(-c2ccc(F)cc2)n1CC[C@@H](O)C[C@@H](O)CC(=O)O [ATORVASTATIN]
AC50 [1]: > 30 µM

[H]/N=C(/N)c1ccc(NCc2nc3cc(C(=O)N(CCC(=O)O)c4ccccn4)ccc3n2C)cc1 [DABIGATRAN]
AC50 (Glucocorticoid receptor): > 30 µM
AC50 (Estrogen receptor): > 30 µM

Cc1c(O)c(=O)ccn1C [DEFERIPRONE]
AC50 [2]: > 100 µM

CCNC(C)Cc1cccc(C(F)(F)F)c1 (configuration not stated) [FENFLURAMINE]
AC50 [3]: 3.71 µM

Nc1nc2ccc(OC(F)(F)F)cc2s1 [RILUZOLE]
AC50 [4]: > 30 µM

BIVALIRUDIN
AC50 [5]: > 30 µM
